Measured values from patent US20230053540A1, “TREATMENT OF LIVER INJURY” (Massachusetts Institute of Technology, priority 2019, published 2023).

Key:
hepatocytes = assay: Gene set analysis (piano) of composite DEG, APAP vs untreated; design: species or system mouse
Description: Shared and unique by injury model gene lists were assembled by combining DE results across all time points for each injury. Applicants ran differential expression using Wilcox test in the FindAllMarkers Seurat function between each treatment condition (A6, A24, A48, A96, PH3, PH48, PH120) individually and untreated (UT). […] A small number of genes were up at one time point, but down at another.
Applicants ran pathway analysis on the composite DE results using the piano R package. Reference gene sets were downloaded from MSigDB (Broad Institute). Applicants used geneSetStat=“fisher”, adjMethod=“fdr”, and signifMethod=“geneSampling”. Applicants then parsed the results to identify shared and unique reference gene sets for each injury. Any reference gene set with a q-value greater than 0.05 was discarded as insignificant. […] Selected reference gene set −log(q) are plotted in FIG. 20.

mouse liver = assay: APAP acute liver injury in mice, histology/IHC (TUNEL, PCNA); type: in vivo; details: 300 mg/kg APAP i.p.
Procedure: Mice were then used for isolation of primary hepatic cells for single cell RNA-sequencing or tissue harvest for further downstream analysis.
A portion of liver tissue was fixed in 10% neutral buffered formalin for 48 hrs and further processed to obtain paraffin blocks and 5 μm thick sections. A portion of liver tissue was frozen in optimal cutting temperature (OCT) medium and used to obtain 10 μm fresh frozen sections.
Histology was performed by the histology core at Beth Israel Deaconess Medical Center using standard procedures and automated workflow. Samples were processed and embedded following fixation in 10% neutral buffered formalin for 48 hrs. Samples were embedded in paraffin and sectioned at […]. Immunohistochemistry was performed on a Leica autostainer (Leica Biosystems) with enzyme treatment (1:1000) using standard protocols. The antibody used for assessment of cell proliferation was PCNA (Cell Signaling, Cat. 13110, 1:800), and cell death was ApopTag Peroxidase In Situ Apoptosis Detection Kit (Millipore, Cat. #S7100). Macrophages were stained using the anti-F4/80 (Cell Signaling, Cat. 70076, 1:500). Sections were then counterstained with hematoxylin, dehydrated, and film cover slipped. Four representative images were captured per slide. TUNEL-positive area, PCNA-positive cells, and F4/80-positive cells were measured and averaged across the four images for each sample using Fiji.

CC(=O)Nc1ccc(O)cc1 [APAP, acetaminophen]
anti-oxidant response by gene set analysis (GSA) (hepatocytes): substantial anti-oxidant response
histological analysis of liver (mouse liver; 6 hrs post-APAP (A6)): pericentral necrosis
histology of liver (mouse liver; 24 hrs post-APAP (A24)): persistent pericentral necrosis
total cell loss (liver cell mass) after APAP exposure (mouse liver; PH ~70%): ~10%
